Measurements as given in ChEMBL document CHEMBL5465560, “Selectivity Literature for EUbOPEN Chemogenomic Library” (2024).

Tests used:
[1] = biological target: Casein kinase I isoform delta (Homo sapiens, UniProt P48730); test: Selectivity interaction (Kinase panel (Z-LYTE Assay)) EUB0001632a CSNK1D; conditions: at 10 µM
[2] = biological target: T1, Ephrin type-B receptor 4 (Homo sapiens) (UniProt P54760); test: Selectivity interaction (SelectScreen profiling (Invitrogen)) EUB0000607a EPHB4; conditions: at 2 µM
T1 sequence (whole entry): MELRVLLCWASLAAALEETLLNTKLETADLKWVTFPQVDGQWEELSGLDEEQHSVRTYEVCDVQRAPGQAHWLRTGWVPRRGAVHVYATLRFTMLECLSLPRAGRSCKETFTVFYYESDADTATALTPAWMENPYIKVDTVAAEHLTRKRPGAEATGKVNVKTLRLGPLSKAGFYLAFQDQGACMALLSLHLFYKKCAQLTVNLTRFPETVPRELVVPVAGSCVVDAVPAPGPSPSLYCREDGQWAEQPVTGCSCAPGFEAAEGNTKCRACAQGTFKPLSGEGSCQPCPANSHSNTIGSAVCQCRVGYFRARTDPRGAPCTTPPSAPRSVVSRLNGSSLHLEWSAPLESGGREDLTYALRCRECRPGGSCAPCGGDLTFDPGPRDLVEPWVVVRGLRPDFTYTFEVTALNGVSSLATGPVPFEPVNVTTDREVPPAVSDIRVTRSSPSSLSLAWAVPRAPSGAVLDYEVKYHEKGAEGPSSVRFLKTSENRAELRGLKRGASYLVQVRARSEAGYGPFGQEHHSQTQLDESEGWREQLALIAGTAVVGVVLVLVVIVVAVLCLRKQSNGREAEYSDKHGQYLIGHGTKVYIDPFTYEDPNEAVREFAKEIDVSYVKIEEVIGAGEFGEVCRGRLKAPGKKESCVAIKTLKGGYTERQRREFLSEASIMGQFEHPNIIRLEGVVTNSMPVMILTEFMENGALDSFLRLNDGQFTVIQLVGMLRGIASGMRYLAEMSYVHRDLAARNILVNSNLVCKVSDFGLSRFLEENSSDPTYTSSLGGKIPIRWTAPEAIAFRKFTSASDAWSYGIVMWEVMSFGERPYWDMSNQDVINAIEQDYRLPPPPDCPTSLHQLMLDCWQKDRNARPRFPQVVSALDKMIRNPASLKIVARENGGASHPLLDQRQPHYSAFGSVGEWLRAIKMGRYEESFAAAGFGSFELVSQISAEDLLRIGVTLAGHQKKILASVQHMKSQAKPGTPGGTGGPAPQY

[3] = biological target: T2, Serine/threonine-protein kinase ULK3 (Homo sapiens) (UniProt Q6PHR2); test: Selectivity interaction (ActivX KiNativ screen (kinase selectivity in THP-1 cell lysates)) EUB0000639a ULK3; assay type: subcellular; conditions: lysate, at 1 µM
T2 sequence (whole entry): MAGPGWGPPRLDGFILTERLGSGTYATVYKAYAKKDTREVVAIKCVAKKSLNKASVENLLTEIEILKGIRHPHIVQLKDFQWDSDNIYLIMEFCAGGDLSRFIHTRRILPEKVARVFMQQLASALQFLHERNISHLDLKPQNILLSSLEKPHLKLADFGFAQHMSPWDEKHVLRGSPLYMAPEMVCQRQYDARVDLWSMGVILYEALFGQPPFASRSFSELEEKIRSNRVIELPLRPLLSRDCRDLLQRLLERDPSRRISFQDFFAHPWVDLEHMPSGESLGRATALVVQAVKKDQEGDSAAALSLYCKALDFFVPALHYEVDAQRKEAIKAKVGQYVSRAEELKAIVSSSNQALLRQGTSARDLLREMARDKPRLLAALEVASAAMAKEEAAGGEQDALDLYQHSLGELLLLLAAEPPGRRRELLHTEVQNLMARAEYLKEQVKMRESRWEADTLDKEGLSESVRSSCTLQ

[4] = biological target: Phosphorylase b kinase gamma catalytic chain, skeletal muscle/heart isoform (Homo sapiens) (UniProt Q16816); test: Selectivity interaction (KinomeScan (DiscoverX)) EUB0000595a PHKG1; conditions: at 10 µM
[5] = biological target: Misshapen-like kinase 1 (Homo sapiens, UniProt Q8N4C8); test: Selectivity interaction (SelectScreen Kinase Profiling (Thermo Fisher Scientific)) EUB0001558a MINK1; conditions: at 1 µM
Chain of Misshapen-like kinase 1 (Q8N4C8 whole entry, looked up): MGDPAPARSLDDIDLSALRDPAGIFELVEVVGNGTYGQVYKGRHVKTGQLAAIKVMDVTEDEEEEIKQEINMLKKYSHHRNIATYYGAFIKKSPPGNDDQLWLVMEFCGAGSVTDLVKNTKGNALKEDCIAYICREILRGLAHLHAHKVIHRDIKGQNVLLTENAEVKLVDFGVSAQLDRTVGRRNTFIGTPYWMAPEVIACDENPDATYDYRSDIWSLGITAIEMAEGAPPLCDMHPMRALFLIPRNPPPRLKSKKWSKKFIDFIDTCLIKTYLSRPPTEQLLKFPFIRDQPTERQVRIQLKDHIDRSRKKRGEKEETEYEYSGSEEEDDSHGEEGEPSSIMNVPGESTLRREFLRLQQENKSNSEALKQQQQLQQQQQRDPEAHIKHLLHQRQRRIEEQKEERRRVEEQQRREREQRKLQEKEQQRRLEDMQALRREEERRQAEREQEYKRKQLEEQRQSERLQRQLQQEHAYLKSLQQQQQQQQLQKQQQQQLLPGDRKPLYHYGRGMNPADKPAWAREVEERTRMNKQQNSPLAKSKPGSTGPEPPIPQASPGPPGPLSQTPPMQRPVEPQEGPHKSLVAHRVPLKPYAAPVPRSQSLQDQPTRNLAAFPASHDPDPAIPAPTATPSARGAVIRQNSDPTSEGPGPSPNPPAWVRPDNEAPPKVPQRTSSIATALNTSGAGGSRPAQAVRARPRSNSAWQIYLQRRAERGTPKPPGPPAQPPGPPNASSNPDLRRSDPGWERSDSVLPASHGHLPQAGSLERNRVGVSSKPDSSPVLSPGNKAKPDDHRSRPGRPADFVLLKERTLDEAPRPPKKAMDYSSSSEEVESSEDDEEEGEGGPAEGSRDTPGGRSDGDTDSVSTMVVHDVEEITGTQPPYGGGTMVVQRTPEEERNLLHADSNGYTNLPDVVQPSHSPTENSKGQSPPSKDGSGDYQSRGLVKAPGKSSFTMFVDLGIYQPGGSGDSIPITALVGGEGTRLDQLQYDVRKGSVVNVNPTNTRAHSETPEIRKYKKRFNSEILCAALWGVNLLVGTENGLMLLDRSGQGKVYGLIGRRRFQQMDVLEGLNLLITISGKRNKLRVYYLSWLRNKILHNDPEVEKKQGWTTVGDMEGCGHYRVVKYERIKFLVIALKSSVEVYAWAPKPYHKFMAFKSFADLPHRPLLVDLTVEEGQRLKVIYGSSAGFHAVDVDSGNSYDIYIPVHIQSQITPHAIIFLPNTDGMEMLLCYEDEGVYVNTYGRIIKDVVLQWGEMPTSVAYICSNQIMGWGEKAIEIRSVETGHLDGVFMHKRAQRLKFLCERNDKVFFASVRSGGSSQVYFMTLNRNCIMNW

[6] = biological target: Serine/threonine-protein kinase Nek7 (Homo sapiens) (UniProt Q8TDX7); test: Selectivity interaction (KinomeScan (DiscoverX)) EUB0001079a NEK7; conditions: at 1 µM
Chain of Serine/threonine-protein kinase Nek7 (Homo sapiens) (Q8TDX7 whole entry, looked up): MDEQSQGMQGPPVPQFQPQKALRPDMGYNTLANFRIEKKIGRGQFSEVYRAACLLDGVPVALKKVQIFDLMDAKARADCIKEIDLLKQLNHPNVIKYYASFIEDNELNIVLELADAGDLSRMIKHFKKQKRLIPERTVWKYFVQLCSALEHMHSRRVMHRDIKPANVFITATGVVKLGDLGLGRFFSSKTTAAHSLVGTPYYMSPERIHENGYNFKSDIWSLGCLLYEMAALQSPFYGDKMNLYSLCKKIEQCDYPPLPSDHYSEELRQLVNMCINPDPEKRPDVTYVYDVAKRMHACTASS

[7] = biological target: T3, Serine/threonine-protein kinase 3 (Homo sapiens) (UniProt Q13188); test: Selectivity interaction (Kinase panel (KiNativ target engagement assay in Jurkat cells)) EUB0001635a STK3; assay type: cell-based; conditions: Selectivity number of off-targets 0.0, Selectivity number of targets 233.0, Source Knowledge https://www.sciencedirect.com/science/article/pii/S2451945619300674?via%3Dihub, at 1 µM
T3 sequence (whole entry): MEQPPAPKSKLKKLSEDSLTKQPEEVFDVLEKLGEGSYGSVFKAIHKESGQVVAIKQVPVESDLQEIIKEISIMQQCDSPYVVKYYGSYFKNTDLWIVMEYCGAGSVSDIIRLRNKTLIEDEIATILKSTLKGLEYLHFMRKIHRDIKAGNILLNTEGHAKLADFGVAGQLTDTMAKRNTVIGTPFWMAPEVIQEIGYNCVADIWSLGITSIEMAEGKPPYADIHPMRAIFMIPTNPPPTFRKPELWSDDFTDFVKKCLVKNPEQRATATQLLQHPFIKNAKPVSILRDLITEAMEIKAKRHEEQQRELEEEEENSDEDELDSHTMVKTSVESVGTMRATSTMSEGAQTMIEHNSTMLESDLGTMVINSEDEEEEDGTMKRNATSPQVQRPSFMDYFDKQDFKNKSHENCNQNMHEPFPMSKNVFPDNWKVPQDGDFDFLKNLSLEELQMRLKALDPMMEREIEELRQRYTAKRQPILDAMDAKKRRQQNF

[8] = biological target: Ribosomal protein S6 kinase alpha-3 (Homo sapiens, UniProt P51812); test: Selectivity interaction (Kinase panel (KiNativ target engagement assay in Jurkat cells)) EUB0001635a RPS6KA3; assay type: cell-based; conditions: Selectivity number of off-targets 0.0, Selectivity number of targets 233.0, Source Knowledge https://www.sciencedirect.com/science/article/pii/S2451945619300674?via%3Dihub, at 1 µM
Chain of Ribosomal protein S6 kinase alpha-3 (P51812 whole entry): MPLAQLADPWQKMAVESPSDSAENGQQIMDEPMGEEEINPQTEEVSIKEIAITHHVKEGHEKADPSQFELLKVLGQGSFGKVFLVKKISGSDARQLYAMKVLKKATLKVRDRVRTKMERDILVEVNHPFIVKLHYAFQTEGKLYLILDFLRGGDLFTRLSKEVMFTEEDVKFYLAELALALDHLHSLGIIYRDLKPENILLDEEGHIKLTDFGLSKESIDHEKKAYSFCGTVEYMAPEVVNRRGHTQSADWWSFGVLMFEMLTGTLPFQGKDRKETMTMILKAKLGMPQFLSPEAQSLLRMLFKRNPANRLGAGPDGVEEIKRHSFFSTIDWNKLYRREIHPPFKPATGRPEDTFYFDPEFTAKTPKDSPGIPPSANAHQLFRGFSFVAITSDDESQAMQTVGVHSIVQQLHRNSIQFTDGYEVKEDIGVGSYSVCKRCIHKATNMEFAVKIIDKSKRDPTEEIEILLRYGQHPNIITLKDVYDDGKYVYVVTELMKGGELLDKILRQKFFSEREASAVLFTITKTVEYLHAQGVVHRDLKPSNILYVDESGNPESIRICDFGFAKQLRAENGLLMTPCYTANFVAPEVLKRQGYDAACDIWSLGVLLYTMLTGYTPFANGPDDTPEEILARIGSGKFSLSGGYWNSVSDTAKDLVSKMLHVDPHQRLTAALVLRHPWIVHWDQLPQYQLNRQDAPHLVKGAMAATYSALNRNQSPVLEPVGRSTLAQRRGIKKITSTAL

[9] = biological target: Serine/threonine-protein kinase Nek4 (Homo sapiens) (UniProt P51957); test: Selectivity interaction (KinomeScan (DiscoverX)) EUB0000229b NEK4; conditions: at 10 µM
Chain of Serine/threonine-protein kinase Nek4 (Homo sapiens) (P51957 whole entry, looked up): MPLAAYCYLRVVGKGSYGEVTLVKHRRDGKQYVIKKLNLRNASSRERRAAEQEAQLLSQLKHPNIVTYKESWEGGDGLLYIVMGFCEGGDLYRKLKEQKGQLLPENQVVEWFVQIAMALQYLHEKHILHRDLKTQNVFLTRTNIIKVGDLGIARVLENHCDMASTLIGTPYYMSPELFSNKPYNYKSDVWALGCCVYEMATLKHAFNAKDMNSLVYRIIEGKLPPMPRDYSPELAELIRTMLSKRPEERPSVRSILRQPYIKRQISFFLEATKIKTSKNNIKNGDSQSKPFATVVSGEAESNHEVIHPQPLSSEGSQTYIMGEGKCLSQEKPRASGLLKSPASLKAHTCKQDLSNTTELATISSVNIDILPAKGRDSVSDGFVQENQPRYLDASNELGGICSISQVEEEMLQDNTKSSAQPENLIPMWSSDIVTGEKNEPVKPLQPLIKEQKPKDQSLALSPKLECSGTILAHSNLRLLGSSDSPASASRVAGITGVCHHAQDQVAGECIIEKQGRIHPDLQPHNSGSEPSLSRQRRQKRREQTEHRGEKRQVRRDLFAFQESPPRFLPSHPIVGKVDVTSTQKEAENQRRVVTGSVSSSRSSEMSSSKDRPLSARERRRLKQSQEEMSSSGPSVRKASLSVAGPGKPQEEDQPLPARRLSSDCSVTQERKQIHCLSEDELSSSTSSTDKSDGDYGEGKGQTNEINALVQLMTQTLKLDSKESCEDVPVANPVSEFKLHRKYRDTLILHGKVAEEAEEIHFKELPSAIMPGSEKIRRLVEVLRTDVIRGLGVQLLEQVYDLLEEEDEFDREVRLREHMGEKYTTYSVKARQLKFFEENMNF

[10] = biological target: Mitogen-activated protein kinase 8 (Homo sapiens, UniProt P45983); conditions: at 10 µM
[11] = biological target: Rho-associated protein kinase 1 (Homo sapiens) (UniProt Q13464); test: Selectivity interaction (ActivX KiNativ screen (ex vivo kinase selectivity in human PBMCs)) EUB0001619a ROCK1; assay type: cell-based; conditions: PBMC, at 1 µM
Chain of Rho-associated protein kinase 1 (Homo sapiens) (Q13464 2-1354 limits assumed): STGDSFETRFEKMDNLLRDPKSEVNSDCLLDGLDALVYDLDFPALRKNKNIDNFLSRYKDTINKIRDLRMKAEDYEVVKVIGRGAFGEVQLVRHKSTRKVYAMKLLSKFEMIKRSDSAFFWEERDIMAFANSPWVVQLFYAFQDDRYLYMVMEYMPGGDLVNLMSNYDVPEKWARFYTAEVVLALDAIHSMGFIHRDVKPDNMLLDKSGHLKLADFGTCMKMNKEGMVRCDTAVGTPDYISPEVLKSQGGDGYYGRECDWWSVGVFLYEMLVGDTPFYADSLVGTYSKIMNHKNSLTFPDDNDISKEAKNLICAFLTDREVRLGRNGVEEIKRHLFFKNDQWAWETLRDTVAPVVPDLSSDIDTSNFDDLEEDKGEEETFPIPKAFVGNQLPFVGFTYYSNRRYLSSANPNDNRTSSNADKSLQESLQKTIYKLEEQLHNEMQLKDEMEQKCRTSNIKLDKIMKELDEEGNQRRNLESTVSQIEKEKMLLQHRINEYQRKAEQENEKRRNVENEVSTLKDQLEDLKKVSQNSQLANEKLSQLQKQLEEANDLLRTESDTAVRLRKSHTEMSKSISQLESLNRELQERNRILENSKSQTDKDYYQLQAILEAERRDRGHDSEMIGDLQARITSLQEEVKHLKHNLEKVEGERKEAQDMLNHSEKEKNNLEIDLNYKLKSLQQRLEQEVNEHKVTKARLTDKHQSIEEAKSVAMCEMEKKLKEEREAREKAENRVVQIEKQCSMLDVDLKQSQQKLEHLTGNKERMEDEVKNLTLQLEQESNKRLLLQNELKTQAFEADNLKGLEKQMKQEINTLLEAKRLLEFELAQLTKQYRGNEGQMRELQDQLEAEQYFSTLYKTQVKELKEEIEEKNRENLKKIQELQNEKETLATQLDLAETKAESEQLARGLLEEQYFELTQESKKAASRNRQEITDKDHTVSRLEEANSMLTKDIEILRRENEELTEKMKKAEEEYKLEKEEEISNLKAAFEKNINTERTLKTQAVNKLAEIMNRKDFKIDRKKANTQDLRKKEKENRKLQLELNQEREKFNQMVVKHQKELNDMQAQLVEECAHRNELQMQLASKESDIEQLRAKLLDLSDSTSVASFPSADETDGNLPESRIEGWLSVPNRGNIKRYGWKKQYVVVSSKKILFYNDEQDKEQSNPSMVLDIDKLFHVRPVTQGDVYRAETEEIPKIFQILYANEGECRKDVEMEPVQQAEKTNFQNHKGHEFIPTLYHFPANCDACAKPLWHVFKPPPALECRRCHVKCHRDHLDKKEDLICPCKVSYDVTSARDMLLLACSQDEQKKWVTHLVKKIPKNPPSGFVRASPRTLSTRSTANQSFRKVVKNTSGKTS

Chain of Casein kinase I isoform delta (P48730 whole entry, looked up, canonical isoform): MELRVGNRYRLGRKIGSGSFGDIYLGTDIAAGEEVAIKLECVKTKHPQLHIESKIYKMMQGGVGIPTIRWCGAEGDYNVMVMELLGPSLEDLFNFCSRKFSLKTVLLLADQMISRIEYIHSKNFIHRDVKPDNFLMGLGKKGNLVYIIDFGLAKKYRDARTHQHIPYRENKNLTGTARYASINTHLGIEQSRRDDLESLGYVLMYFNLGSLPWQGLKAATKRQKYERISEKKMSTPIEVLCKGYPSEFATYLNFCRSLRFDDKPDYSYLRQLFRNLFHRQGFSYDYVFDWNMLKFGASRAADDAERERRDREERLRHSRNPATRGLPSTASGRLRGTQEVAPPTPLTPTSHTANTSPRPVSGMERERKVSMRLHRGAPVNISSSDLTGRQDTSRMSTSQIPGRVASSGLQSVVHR

## Cn1cc(-n2cnc3c(NCc4nc5cc(Cl)c(Cl)cc5[nH]4)nc(N4CCOCC4)nc32)cn1
[1]
  % of control: 23.3%

## CNC(=O)Nc1ccc(-c2nc(N3CC4CCC(C3)O4)c3cnn(C4CCC5(CC4)OCCO5)c3n2)cc1
[2]
  % of inhibition: -4%

## CC[C@@H]1[C@H](F)C(=O)N[C@@H]1COc1nccc2cc(C(N)=O)c(OC)cc12 [ZIMLOVISERTIB]
[3]
  % of inhibition: -4.6%

## COCC(=O)NC/C=C/c1ccc2ncnc(Nc3ccc(Oc4ccc(C)nc4)c(C)c3)c2c1 [CP-724714]
[4]
  % of control: 100%

## CC(C)(O)[C@H](F)CN1Cc2cc(NC(=O)c3cnn4cccnc34)c(N3CCOCC3)cc2C1=O
[5]
  % of inhibition: 80.5%

## Nc1cnc(N2CCc3cc(S(=O)(=O)Nc4c(F)cc(Cl)cc4F)cc(N4CCCC4=O)c32)nc1 [TP-020n]
[6]
  % of control: 96%

## C=CC(=O)Nc1ccc(C(=O)Nc2[nH]nc3c2CN(C(=O)N[C@H](CN(C)C)c2ccccc2)C3(C)C)cc1
[7]
  % of engagement: 1%
[8]
  % of engagement: 12%

## COc1cc(N(C)c2ccnc3ccc(C(F)(F)F)cc23)cc(OC)c1OC
[9]
  % binding: 82%

## Cc1cc([C@@H](C)Nc2ccccc2C(=O)O)c2nc(N3CCOCC3)cc(=O)n2c1 [AZD-6482]
[10]
  % of control: 100%

## N#Cc1cccc(-c2c[nH]c3ncnc(N4CCOCC4)c23)c1
[11]
  % of inhibition: 2%
